Measurements taken from ChEMBL document CHEMBL3885861, “Open TG-GATES”.

Organism: Rattus norvegicus
Test: Open TG-GATES - Regimen: Single
Format: toxicity, organism-based, Sprague-Dawley
Set-up: regimen Single, gender Male, age 6 weeks
Settings: in vivo, po, route gavage; for gamma-GTP / ALP / AST / CRE / DBIL / GLC / IP / K / LDH / Na / PL / RALB / TBIL / TC / TP: tissue Plasma; for Bas / Eos / Lym / MCHC / MCV / Mono / Neu / RBC / Ret / WBC: tissue Blood; for KIDNEY_L / KIDNEY_R / KIDNEY_TOTAL: tissue Kidney; for LIVER: tissue Liver
[1] = 200 mg/kg, 3 h, dose level Middle
[2] = 200 mg/kg, 6 h, dose level Middle
[3] = 200 mg/kg, 9 h, dose level Middle
[4] = 200 mg/kg, 24 h, dose level Middle
[5] = 600 mg/kg, 3 h, dose level High
[6] = 600 mg/kg, 6 h, dose level High
[7] = 600 mg/kg, 9 h, dose level High
[8] = 600 mg/kg, 24 h, dose level High

`CS(=O)(=O)O.Cc1ccc(NC(=O)c2ccc(CN3CCN(C)CC3)cc2)cc1Nc1nccc(-c2cccnc2)n1` [IMATINIB MESYLATE] gave a gamma-GTP (60 mg/kg, 24 h, dose level Low) of 0.9 IU/L, a Bas [1] of 0% and an Eos [1] of 0.6%. The Lym [1] was 76.2%, the MCHC [1] was 32.5% and the MCV [1] was 63 fL. The Mono [1] was 2.4%, the Neu [1] was 19.8% and the RBC [1] was 602.4 x10_4/ul. It also gave a Ret [1] of 10.1%, a WBC [1] of 94 x10_2/uL and a KIDNEY_L [1] of 0.8 g. The KIDNEY_R [1] was 0.9 g, the KIDNEY_TOTAL [1] was 1.7 g and the LIVER [1] was 8.5 g. For the same molecule, the ALP [1] was 1473.2 IU/L, the AST [1] was 86.2 IU/L and the CRE [1] was 0.2 mg/dL. The DBIL [1] was 0.014 mg/dL, the GLC [1] was 185 mg/dL and the IP [1] was 8.5 mg/dL. The K [1] was 3.9 meq/L, the LDH [1] was 224.6 IU/L and the Na [1] was 142.7 meq/L. It also gave a PL [1] of 131.8 mg/dL, an RALB [1] of 4 g/dL and a TBIL [1] of 0.042 mg/dL. It also gave a TC [1] of 75.8 mg/dL, a TP [1] of 5.4 g/dL and a gamma-GTP [1] of 0.8 IU/L. The Bas [2] was 0%, the Eos [2] was 0% and the Lym [2] was 75.8%. For the same molecule, the MCHC [2] was 32.7%, the MCV [2] was 63 fL and the Mono [2] was 1.8%. It also gave a Neu [2] of 21.6%, an RBC [2] of 605.6 x10_4/ul and a Ret [2] of 9.4%. It also gave a WBC [2] of 92.8 x10_2/uL, a KIDNEY_L [2] of 0.9 g and a KIDNEY_R [2] of 0.9 g. The KIDNEY_TOTAL [2] was 1.8 g, the LIVER [2] was 8.3 g and the ALP [2] was 1397.4 IU/L. For the same molecule, the AST [2] was 83.8 IU/L, the CRE [2] was 0.2 mg/dL and the DBIL [2] was 0.014 mg/dL. It also gave a GLC [2] of 184.2 mg/dL, an IP [2] of 9.1 mg/dL and a K [2] of 3.8 meq/L. For the same molecule, the LDH [2] was 187.4 IU/L, the Na [2] was 139.7 meq/L and the PL [2] was 147.6 mg/dL. It also gave an RALB [2] of 4 g/dL, a TBIL [2] of 0.046 mg/dL and a TC [2] of 81.6 mg/dL. The TP [2] was 5.4 g/dL, the gamma-GTP [2] was 0.8 IU/L and the Bas [3] was 0%. The Eos [3] was 0%, the Lym [3] was 78.6% and the MCHC [3] was 33.1%. The MCV [3] was 64.1 fL, the Mono [3] was 1% and the Neu [3] was 19.2%. For the same molecule, the RBC [3] was 566.4 x10_4/ul, the Ret [3] was 10.1% and the KIDNEY_L [3] was 0.9 g. It also gave a KIDNEY_R [3] of 0.9 g, a KIDNEY_TOTAL [3] of 1.8 g and an LIVER [3] of 7.8 g. It also gave an ALP [3] of 1450.6 IU/L, an AST [3] of 80.6 IU/L and a CRE [3] of 0.2 mg/dL. It also gave a DBIL [3] of 0.016 mg/dL, a GLC [3] of 180 mg/dL and an IP [3] of 9 mg/dL. The K [3] was 4 meq/L, the LDH [3] was 197.8 IU/L and the Na [3] was 139.8 meq/L. For the same molecule, the PL [3] was 145.8 mg/dL, the RALB [3] was 4.2 g/dL and the TBIL [3] was 0.062 mg/dL. It also gave a TC [3] of 82.6 mg/dL, a TP [3] of 5.5 g/dL and a gamma-GTP [3] of 0.9 IU/L. It also gave a Bas [4] of 0%, an Eos [4] of 0.6% and a Lym [4] of 81%. For the same molecule, the MCHC [4] was 33%, the MCV [4] was 63.9 fL and the Mono [4] was 1.2%. For the same molecule, the Neu [4] was 16.2%, the RBC [4] was 583.2 x10_4/ul and the Ret [4] was 7.9%. For the same molecule, the WBC [4] was 97.7 x10_2/uL, the KIDNEY_L [4] was 0.9 g and the KIDNEY_R [4] was 0.9 g. It also gave a KIDNEY_TOTAL [4] of 1.8 g, an LIVER [4] of 8.6 g and an ALP [4] of 1768.2 IU/L. It also gave an AST [4] of 98.4 IU/L, a CRE [4] of 0.2 mg/dL and a DBIL [4] of 0.008 mg/dL. It also gave a GLC [4] of 180.4 mg/dL, an IP [4] of 7.5 mg/dL and a K [4] of 4 meq/L. For the same molecule, the LDH [4] was 181.8 IU/L, the Na [4] was 143 meq/L and the PL [4] was 148.4 mg/dL. The RALB [4] was 4.1 g/dL, the TBIL [4] was 0.042 mg/dL and the TC [4] was 79 mg/dL. For the same molecule, the TP [4] was 5.8 g/dL, the gamma-GTP [4] was 0.8 IU/L and the Bas [5] was 0%. For the same molecule, the Eos [5] was 1%, the Lym [5] was 74.2% and the MCHC [5] was 32.7%. For the same molecule, the MCV [5] was 63.3 fL, the Mono [5] was 2.6% and the Neu [5] was 22.2%. For the same molecule, the RBC [5] was 595.8 x10_4/ul, the Ret [5] was 9.3% and the WBC [5] was 88.6 x10_2/uL. It also gave a KIDNEY_L [5] of 0.9 g, a KIDNEY_R [5] of 0.9 g and a KIDNEY_TOTAL [5] of 1.8 g. The LIVER [5] was 8.9 g, the ALP [5] was 1505 IU/L and the AST [5] was 86 IU/L. It also gave a CRE [5] of 0.2 mg/dL, a DBIL [5] of 0.01 mg/dL and a GLC [5] of 185.4 mg/dL. It also gave an IP [5] of 9 mg/dL, a K [5] of 3.9 meq/L and an LDH [5] of 244.6 IU/L. For the same molecule, the Na [5] was 143.3 meq/L, the PL [5] was 138.4 mg/dL and the RALB [5] was 4.2 g/dL. It also gave a TBIL [5] of 0.044 mg/dL, a TC [5] of 79 mg/dL and a TP [5] of 5.6 g/dL. For the same molecule, the gamma-GTP [5] was 0.8 IU/L, the Bas [6] was 0% and the Eos [6] was 0.8%. It also gave a Lym [6] of 67.8%, an MCHC [6] of 33.1% and an MCV [6] of 63.5 fL. It also gave a Mono [6] of 1.6%, a Neu [6] of 28.6% and an RBC [6] of 589.6 x10_4/ul. It also gave a Ret [6] of 8.9%, a WBC [6] of 104.9 x10_2/uL and a KIDNEY_L [6] of 0.9 g. It also gave a KIDNEY_R [6] of 0.9 g, a KIDNEY_TOTAL [6] of 1.8 g and an LIVER [6] of 7.9 g. It also gave an ALP [6] of 1661.2 IU/L, an AST [6] of 88.2 IU/L and a CRE [6] of 0.2 mg/dL. It also gave a DBIL [6] of 0.016 mg/dL, a GLC [6] of 180.4 mg/dL and an IP [6] of 8.9 mg/dL. For the same molecule, the K [6] was 3.9 meq/L, the LDH [6] was 553.8 IU/L and the Na [6] was 140 meq/L. It also gave a PL [6] of 159.4 mg/dL, an RALB [6] of 4.1 g/dL and a TBIL [6] of 0.048 mg/dL. The TC [6] was 91.6 mg/dL, the TP [6] was 5.3 g/dL and the gamma-GTP [6] was 0.8 IU/L. For the same molecule, the Bas [7] was 0%, the Eos [7] was 0% and the Lym [7] was 72.2%. It also gave an MCHC [7] of 32.6%, an MCV [7] of 63.6 fL and a Mono [7] of 1.6%. For the same molecule, the Neu [7] was 25.2%, the RBC [7] was 592.6 x10_4/ul and the Ret [7] was 9.7%. It also gave a KIDNEY_L [7] of 0.9 g, a KIDNEY_R [7] of 0.9 g and a KIDNEY_TOTAL [7] of 1.8 g. The LIVER [7] was 7.8 g, the ALP [7] was 1627 IU/L and the AST [7] was 85 IU/L. For the same molecule, the CRE [7] was 0.2 mg/dL, the DBIL [7] was 0.016 mg/dL and the GLC [7] was 183.2 mg/dL. It also gave an IP [7] of 8.8 mg/dL, a K [7] of 3.8 meq/L and an LDH [7] of 180.8 IU/L. For the same molecule, the Na [7] was 140.1 meq/L, the PL [7] was 140.8 mg/dL and the RALB [7] was 4.2 g/dL. For the same molecule, the TBIL [7] was 0.054 mg/dL, the TC [7] was 78 mg/dL and the TP [7] was 5.5 g/dL. The gamma-GTP [7] was 0.8 IU/L, the Bas [8] was 0% and the Eos [8] was 0.8%. For the same molecule, the Lym [8] was 76.4%, the MCHC [8] was 33.1% and the MCV [8] was 62.5 fL. For the same molecule, the Mono [8] was 2%, the Neu [8] was 20.4% and the RBC [8] was 584.2 x10_4/ul. For the same molecule, the Ret [8] was 7.5%, the WBC [8] was 80.4 x10_2/uL and the KIDNEY_L [8] was 0.9 g. For the same molecule, the KIDNEY_R [8] was 0.9 g, the KIDNEY_TOTAL [8] was 1.9 g and the LIVER [8] was 7.8 g. It also gave an ALP [8] of 1838.6 IU/L, an AST [8] of 118.4 IU/L and a CRE [8] of 0.2 mg/dL. For the same molecule, the DBIL [8] was 0.016 mg/dL, the GLC [8] was 175.2 mg/dL and the IP [8] was 7.8 mg/dL. For the same molecule, the K [8] was 4.1 meq/L, the LDH [8] was 227.6 IU/L and the Na [8] was 141.8 meq/L. It also gave a PL [8] of 131.4 mg/dL, an RALB [8] of 4 g/dL and a TBIL [8] of 0.072 mg/dL. It also gave a TC [8] of 72.6 mg/dL, a TP [8] of 5.6 g/dL and a gamma-GTP [8] of 0.9 IU/L.
